# Results: ChEMBL document CHEMBL4811281, “Identification of aryl sulfonamides as novel and potent inhibitors of NaV1.5” (Bioorg Med Chem Lett, 2021)
# What was measured:
# [1] = Cmax in FVB mouse at 10 mg/kg, po; assay type: ADME, organism-based; set-up: route oral, dose 10 mg/kg; conditions: in vivo
# [2] = target: Cytochrome P450 2C9 (Homo sapiens, UniProt P11712); test: Inhibition of CYP2C9 (unknown origin); assay type: ADME
# [3] = Intrinsic clearance in mouse liver microsomes; assay type: ADME, Microsome; conditions: read-out: CLH
# [4] = Oral bioavailability in FVB mouse at 10 mg/kg; assay type: ADME, organism-based; conditions: in vivo
# [5] = Volume of distribution at steady state in FVB mouse at 1 mg/kg, iv; assay type: ADME, organism-based; conditions: in vivo, read-out: Vdss
# [6] = Drug uptake in FVB mouse brain at 10 mg/kg, po measured after 2 hrs; assay type: ADME, organism-based; conditions: read-out: Drug uptake
# [7] = Inhibition of human Nav1.5 VSD4 F1759A mutant by automated voltage clamp electrophysiology
# [8] = target: T1, Sodium channel protein type 5 subunit alpha (Homo sapiens, UniProt Q14524); test: Inhibition of human Nav1.5 by automated voltage clamp electrophysiology
# [9] = target: Cytochrome P450 2D6 (Homo sapiens, UniProt P10635); test: Inhibition of CYP2D6 (unknown origin); assay type: ADME
# [10] = Plasma concentration in FVB mouse at 10 mg/kg, po measured after 2 hrs; assay type: ADME, organism-based
# [11] = Clearance in FVB mouse at 1 mg/kg, iv; assay type: ADME, organism-based; conditions: in vivo
# [12] = target: Cytochrome P450 3A4 (Homo sapiens, UniProt P08684); test: Inhibition of CYP3A4 (unknown origin); assay type: ADME
# [13] = Half life in FVB mouse at 1 mg/kg, iv; assay type: ADME, organism-based; conditions: in vivo
# [14] = AUC in FVB mouse at 10 mg/kg, po; assay type: ADME, organism-based; set-up: dose 10 mg/kg; conditions: in vivo
# [15] = Ratio of drug level in brain to plasma in FVB mouse at 10 mg/kg, po measured after 2 hrs; assay type: ADME, organism-based; conditions: read-out: BPR
# [16] = Intrinsic clearance in human liver microsomes; assay type: ADME, Microsome; conditions: read-out: CLH
# [17] = target: Cytochrome P450 2C19 (Homo sapiens, UniProt P33261); test: Inhibition of CYP2C19 (unknown origin); assay type: ADME
# [18] = Half life in FVB mouse at 10 mg/kg, po; assay type: ADME, organism-based; conditions: in vivo
# [19] = target: T1, Sodium channel protein type 5 subunit alpha; test: Displacement of [3H]BNZA from Nav1.5 (unknown origin)
# [20] = AUC in FVB mouse at 1 mg/kg, iv; assay type: ADME, organism-based; set-up: dose 1 mg/kg; conditions: in vivo
# [21] = target: Cytochrome P450 1A2 (Homo sapiens, UniProt P05177); test: Inhibition of CYP1A2 (unknown origin); assay type: ADME
# [22] = target: Nav1.5 (SCN5A) (Homo sapiens, UniProt Q14524); test: State dependent inhibition of human Nav1.5 expressed in HEK293 cells assessed as shift in compound IC50 at rested state at membrane potential of -120 mV relative to partially inactivated state at membrane potential of -95 mV; assay type: cell-based; conditions: HEK293 cells that express human Nav1.5, read-out: FC
# [23] = target: T2, Sodium channel protein type 1 subunit alpha (Homo sapiens, UniProt P35498); test: Inhibition of human Nav1.1 by V1/2 protocol based analysis
# [24] = target: Kv channel-interacting protein 2/Potassium voltage-gated channel subfamily D member 3 (Homo sapiens, UniProt Q9UK17+Q9NS61); test: Inhibition of Kv4.3/KChIP2.2 (unknown origin) by voltage clamp method; assay type: protein-complex assay
# [25] = target: T2, Sodium channel protein type 1 subunit alpha; test: Inhibition of human Nav1.1 expressed in HEK293 cells by sodium influx assay; assay type: cell-based
# [26] = target: T3, Sodium channel protein type 2 subunit alpha (Homo sapiens, UniProt Q99250); test: Inhibition of human Nav1.2 expressed in HEK293 cells by sodium influx assay; assay type: cell-based
# [27] = target: T1, Sodium channel protein type 5 subunit alpha; test: Inhibition of human Nav1.5 expressed in HEK293 cells by sodium influx assay; assay type: cell-based
# [28] = target: hERG (KCNH2) (Homo sapiens, UniProt Q12809); test: Inhibition of human ERG at 10 uM by voltage clamp method
# [29] = target: T1, Sodium channel protein type 5 subunit alpha; test: Inhibition of human Nav1.5 expressed in HEK293 cells assessed as inhibition of late channel current at holding potential of -95 mV; assay type: cell-based
# [30] = target: T2, Sodium channel protein type 1 subunit alpha; test: Inhibition of human Nav1.1 by whole cell voltage clamp analysis
# [31] = target: Sodium channel protein type 9 subunit alpha (Homo sapiens, UniProt Q15858); test: Inhibition of human Nav1.7 expressed in HEK293 cells by sodium flux analysis; assay type: cell-based
# [32] = Anti-arrythmic activity in human iPSC-derived cardiomyocytes assessed as shortening of ATX-II induced APD90 prolongation at 100 nM in presence of 15 to 30 nM ATX-II by current clamp analysis; assay type: functional; conditions: iPSC-CM
# [33] = target: T3, Sodium channel protein type 2 subunit alpha; test: Inhibition of human Nav1.2 by whole cell voltage clamp analysis
# [34] = target: Voltage-gated potassium channel, IKs; KCNQ1(Kv7.1)/KCNE1(MinK) (Homo sapiens, UniProt P51787+P15382); test: Inhibition of KvLQT1/mink (unknown origin) by voltage clamp method; assay type: protein-complex assay
# [35] = target: T1, Sodium channel protein type 5 subunit alpha; test: Inhibition of human Nav1.5 expressed in HEK293 cells assessed as inhibition of peak channel current at holding potential of -95 mV; assay type: cell-based
# [36] = target: T3, Sodium channel protein type 2 subunit alpha; test: Inhibition of human Nav1.2 by V1/2 protocol based analysis
# [37] = target: T1, Sodium channel protein type 5 subunit alpha; test: Inhibition of human Nav1.5 by V1/2 protocol based analysis
# [38] = target: T4, Sodium channel protein type 8 subunit alpha (Homo sapiens, UniProt Q9UQD0); test: Inhibition of human Nav1.6 by V1/2 protocol based analysis
# [39] = target: Voltage-dependent L-type calcium channel subunit alpha-1C (Homo sapiens, UniProt Q13936); test: Inhibition of Cav1.2 (unknown origin) by voltage clamp assay
# [40] = target: T4, Sodium channel protein type 8 subunit alpha; test: Inhibition of human Nav1.6 by whole cell voltage clamp analysis
# [41] = Anti-arrythmic activity in human iPSC-derived cardiomyocytes assessed as reduction in upstroke velocity dV/dt(Vmax) at 100 nM in presence of 15 to 30 nM ATX-II by current clamp analysis; assay type: functional; conditions: iPSC-CM
# [42] = target: T4, Sodium channel protein type 8 subunit alpha; test: Inhibition of human Nav1.6 expressed in HEK293 cells by sodium influx assay; assay type: cell-based
# T4 sequence (Q9UQD0 whole entry): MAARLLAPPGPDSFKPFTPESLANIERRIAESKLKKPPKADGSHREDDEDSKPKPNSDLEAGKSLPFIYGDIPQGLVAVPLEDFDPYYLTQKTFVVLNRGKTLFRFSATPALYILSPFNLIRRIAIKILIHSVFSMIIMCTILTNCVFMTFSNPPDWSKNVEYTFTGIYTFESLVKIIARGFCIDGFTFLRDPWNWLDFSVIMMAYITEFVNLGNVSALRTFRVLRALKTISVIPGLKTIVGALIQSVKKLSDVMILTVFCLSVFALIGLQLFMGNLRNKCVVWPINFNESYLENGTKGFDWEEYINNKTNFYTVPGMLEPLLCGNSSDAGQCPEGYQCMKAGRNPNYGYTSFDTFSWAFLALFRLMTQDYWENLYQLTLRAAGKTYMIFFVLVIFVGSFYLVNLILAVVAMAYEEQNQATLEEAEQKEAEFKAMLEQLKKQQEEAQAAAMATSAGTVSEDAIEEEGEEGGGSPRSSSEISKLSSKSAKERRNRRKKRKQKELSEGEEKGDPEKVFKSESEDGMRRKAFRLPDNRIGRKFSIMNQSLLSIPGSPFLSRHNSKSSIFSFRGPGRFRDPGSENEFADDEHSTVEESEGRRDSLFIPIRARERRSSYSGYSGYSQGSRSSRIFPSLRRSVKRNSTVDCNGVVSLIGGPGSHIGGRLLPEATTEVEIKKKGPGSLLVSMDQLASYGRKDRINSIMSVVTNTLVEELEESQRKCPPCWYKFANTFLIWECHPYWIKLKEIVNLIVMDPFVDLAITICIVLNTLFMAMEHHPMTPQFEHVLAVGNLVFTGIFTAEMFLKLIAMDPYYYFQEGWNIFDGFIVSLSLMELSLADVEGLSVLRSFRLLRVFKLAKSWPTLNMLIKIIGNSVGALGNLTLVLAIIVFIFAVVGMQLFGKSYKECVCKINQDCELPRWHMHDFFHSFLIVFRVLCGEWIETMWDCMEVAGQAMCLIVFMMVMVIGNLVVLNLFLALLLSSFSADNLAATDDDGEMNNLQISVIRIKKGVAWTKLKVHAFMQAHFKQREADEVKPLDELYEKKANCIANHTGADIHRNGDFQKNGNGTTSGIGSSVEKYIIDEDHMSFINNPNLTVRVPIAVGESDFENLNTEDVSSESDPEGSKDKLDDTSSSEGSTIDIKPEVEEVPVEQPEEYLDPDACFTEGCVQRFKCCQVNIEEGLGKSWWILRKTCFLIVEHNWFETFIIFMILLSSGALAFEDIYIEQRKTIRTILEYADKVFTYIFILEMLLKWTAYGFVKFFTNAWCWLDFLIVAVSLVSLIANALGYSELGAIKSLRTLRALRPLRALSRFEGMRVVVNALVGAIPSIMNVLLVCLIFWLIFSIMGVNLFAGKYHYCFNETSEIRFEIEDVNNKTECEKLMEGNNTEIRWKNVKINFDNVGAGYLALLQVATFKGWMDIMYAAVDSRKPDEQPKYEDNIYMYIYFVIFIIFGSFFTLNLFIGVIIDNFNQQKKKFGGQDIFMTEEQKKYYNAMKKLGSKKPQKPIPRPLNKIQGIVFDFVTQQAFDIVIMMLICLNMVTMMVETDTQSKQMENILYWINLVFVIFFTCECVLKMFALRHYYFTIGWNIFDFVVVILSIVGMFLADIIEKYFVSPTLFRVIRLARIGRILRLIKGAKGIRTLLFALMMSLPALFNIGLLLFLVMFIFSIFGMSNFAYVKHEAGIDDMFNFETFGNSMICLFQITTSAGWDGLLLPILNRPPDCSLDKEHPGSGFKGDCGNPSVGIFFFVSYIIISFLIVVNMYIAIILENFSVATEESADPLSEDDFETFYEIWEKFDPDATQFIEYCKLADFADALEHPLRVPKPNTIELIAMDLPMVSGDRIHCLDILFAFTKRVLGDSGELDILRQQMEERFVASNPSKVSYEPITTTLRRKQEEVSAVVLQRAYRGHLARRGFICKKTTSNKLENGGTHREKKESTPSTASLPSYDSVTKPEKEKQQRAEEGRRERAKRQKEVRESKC
# T1 sequence (Q14524 whole entry): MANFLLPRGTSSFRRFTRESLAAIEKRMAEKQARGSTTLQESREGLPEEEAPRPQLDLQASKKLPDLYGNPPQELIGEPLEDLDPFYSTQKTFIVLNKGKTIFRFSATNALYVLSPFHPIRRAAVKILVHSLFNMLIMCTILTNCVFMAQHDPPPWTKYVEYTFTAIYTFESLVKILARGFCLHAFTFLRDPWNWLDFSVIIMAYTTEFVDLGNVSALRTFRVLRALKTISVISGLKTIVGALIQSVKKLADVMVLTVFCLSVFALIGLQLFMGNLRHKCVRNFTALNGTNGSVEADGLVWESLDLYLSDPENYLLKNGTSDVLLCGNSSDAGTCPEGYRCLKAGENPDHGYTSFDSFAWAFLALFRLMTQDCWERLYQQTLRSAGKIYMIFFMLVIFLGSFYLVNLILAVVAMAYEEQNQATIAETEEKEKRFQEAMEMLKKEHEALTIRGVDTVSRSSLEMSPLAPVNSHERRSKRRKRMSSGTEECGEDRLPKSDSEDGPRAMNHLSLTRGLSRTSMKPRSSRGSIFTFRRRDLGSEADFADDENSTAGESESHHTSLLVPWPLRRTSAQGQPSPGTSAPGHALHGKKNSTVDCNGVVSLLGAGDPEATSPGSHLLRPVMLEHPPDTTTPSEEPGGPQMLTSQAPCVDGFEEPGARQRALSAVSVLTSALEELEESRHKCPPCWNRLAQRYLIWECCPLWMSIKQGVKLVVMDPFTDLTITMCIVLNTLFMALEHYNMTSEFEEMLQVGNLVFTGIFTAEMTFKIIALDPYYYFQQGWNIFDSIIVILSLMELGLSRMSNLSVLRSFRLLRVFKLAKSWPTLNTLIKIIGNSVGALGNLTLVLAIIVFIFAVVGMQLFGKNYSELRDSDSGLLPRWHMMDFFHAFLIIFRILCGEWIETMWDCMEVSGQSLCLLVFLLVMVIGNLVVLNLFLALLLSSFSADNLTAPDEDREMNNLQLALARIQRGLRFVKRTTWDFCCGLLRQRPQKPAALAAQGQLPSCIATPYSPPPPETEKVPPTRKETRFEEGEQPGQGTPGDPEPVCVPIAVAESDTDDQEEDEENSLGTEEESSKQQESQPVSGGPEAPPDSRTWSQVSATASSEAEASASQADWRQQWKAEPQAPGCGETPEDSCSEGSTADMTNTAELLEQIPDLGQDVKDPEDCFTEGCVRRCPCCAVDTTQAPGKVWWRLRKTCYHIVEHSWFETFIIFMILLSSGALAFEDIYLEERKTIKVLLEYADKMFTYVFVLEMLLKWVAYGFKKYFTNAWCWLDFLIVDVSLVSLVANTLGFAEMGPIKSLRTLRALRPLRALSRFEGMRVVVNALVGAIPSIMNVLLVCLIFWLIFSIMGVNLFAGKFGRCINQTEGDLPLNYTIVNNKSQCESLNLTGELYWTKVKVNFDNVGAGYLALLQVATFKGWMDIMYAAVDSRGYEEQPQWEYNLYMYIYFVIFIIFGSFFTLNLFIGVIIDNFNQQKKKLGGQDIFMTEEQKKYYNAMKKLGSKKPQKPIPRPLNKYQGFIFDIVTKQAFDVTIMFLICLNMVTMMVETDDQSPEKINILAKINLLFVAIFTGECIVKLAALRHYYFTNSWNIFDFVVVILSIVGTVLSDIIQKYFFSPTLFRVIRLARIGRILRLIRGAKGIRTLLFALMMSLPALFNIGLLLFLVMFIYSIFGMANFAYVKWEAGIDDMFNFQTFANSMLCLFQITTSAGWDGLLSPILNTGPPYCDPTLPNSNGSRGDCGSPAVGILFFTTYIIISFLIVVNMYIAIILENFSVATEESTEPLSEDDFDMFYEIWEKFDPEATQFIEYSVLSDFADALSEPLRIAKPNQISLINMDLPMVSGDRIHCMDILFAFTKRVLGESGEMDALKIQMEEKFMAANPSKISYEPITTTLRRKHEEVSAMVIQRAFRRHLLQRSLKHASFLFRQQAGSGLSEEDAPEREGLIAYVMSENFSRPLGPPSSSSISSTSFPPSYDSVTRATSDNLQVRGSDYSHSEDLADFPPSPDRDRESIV
# Sequence of Cytochrome P450 1A2 (P05177 whole entry): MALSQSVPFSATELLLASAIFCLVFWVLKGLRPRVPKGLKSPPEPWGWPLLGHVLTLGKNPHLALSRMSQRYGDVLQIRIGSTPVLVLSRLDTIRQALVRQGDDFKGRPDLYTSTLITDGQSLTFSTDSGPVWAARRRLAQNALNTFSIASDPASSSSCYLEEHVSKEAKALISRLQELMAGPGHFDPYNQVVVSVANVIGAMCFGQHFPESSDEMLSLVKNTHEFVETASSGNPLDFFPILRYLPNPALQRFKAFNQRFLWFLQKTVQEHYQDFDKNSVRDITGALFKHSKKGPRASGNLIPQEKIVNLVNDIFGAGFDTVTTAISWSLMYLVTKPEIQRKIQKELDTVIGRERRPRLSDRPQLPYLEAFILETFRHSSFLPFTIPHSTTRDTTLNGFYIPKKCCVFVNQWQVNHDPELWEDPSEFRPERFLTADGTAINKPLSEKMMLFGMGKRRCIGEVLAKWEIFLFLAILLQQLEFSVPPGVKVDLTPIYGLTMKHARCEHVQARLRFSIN
# Sequence of Cytochrome P450 2C9 (P11712 whole entry): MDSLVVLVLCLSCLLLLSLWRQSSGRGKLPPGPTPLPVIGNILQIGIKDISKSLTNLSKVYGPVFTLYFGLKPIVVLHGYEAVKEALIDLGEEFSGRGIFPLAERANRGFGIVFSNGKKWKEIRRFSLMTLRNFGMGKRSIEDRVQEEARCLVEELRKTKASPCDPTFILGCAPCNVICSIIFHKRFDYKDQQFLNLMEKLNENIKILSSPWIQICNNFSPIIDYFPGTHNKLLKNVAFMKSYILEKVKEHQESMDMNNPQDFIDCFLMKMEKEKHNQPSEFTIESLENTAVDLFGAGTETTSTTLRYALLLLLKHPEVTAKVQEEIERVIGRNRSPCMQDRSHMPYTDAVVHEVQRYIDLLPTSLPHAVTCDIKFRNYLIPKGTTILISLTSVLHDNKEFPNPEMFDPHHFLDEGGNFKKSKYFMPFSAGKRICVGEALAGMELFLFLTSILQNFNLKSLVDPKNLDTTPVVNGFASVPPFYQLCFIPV
smiles,measurement,setting,value
"O=S(=O)(Nc1cccc(F)n1)c1cc(F)c(OC2CCN(CC(F)(F)F)CC2c2ccc(F)c(F)c2)cc1F (single isomer, unassigned; (-))",Cmax,[1],5.2 µM
same,IC50,[2],6900 nM
same,CLint scaled,[3],50 mL/min/kg
same,bioavailability,[4],45%
same,Vd,[5],0.6 L/kg
same,concentration at 2 h,[6],2.62 µM
same,IC50,[7],> 10000 nM
same,IC50,[8],240 nM
same,inhibition (INH),[9],Not Active
same,concentration at 2 h,[10],9.37 µM
same,clearance,[11],1.8 mL/min/kg
same,inhibition (INH),[12],Not Active
same,half-life,[13],4.3 h
same,AUC,[14],72 µM·h
same,Kp at 2 h,[15],0.28
same,CLint scaled,[16],9 mL/min/kg
same,inhibition (INH),[17],Not Active
same,half-life,[18],4.1 h
same,Ki,[19],2020 nM
same,AUC,[20],16 µM·h
same,inhibition (INH),[21],Not Active
O=S(=O)(Nc1cccc(F)n1)c1cc(F)c(O[C@H]2CCN(CC(F)(F)F)C[C@@H]2c2ccc(F)c(F)c2)c(F)c1 (stereo in doubt; (-)-6),Cmax,[1],3.6 µM
same,IC50,[2],2200 nM
same,selectivity ratio,[22],24
same,IC50,[23],90 nM
same,inhibition (INH),[24],Not Active
same,bioavailability,[4],39%
same,IC50,[25],560 nM
same,Vd,[5],0.8 L/kg
same,IC50,[26],270 nM
same,concentration at 2 h,[6],2.03 µM
same,IC50,[27],44 nM
same,inhibition at 10 µM,[28],5%
same,IC50,[29],15.8 nM
same,IC50,[30],620 nM
same,IC50,[31],220 nM
same,IC50,[8],39 nM
same,inhibition at 0.1 µM,[32],84%
same,inhibition (INH),[9],Not Active
same,IC50,[33],270 nM
same,concentration at 2 h,[10],6.44 µM
same,clearance,[11],3.8 mL/min/kg
same,inhibition (INH),[12],Not Active
same,half-life,[13],2.6 h
same,AUC,[14],30 µM·h
same,Kp at 2 h,[15],0.32
same,inhibition (INH),[17],Not Active
same,inhibition (INH),[34],Not Active
same,IC50,[35],17.7 nM
same,half-life,[18],2.7 h
same,IC50,[36],12 nM
same,IC50,[37],110 nM
same,IC50,[38],110 nM
same,Ki,[19],370 nM
same,inhibition (INH),[39],Not Active
same,IC50,[40],230 nM
same,AUC,[20],7.6 µM·h
same,inhibition (INH),[21],Not Active
same,inhibition at 0.1 µM,[41],23%
same,IC50,[42],110 nM
